Like-named read-outs stand apart in the source and are kept apart here.
Legend:
NMRI mice = test: 2 weeks toxicology study in NMRI mice; format: in vivo
Description: Oral administration of the RXR agonist compound 1 is tested by daily oral gavage in a 2 weeks toxicology study in NMRI mice. […] This signifies a favourable effect on the lipid profile, which is important in therapy of diabetes and lipid disorders.

normal mice = test: 2-weeks toxicity study in normal mice, intraperitoneal; conditions: daily i.p.
[1] = Pharmacokinetics, daily oral gavage for 14 days in mice; conditions: mouse, in vivo; for AUC / Cmax: oral
Description: Daily administration of compound 15 by oral gavage for 14 days in mice: Compound 15 is administered daily by oral gavage as a microsuspension in oil in doses of 30 to 400 mg/kg/day for 14 days in mice.

[2] = tested on: skin inflammation induced by Candidin or UV-B; test: Clinical phase I trial, skin inflammation induced by candidin or UV-B irradiation; format: in vivo, human
Description: Four healthy volunteers participate. Inclusion criteria are: Age above 18 years, male or female. They are informed, with written letter of consent. Exclusion criteria are: Preexistant dermatological diseases, known allergy to test agents.
Inflammation inducing agents: Candidin is administered intradermally (see also D. Poffet, Comparaison entre le pouvoir vaso-constricteur d'un corticoide topique et l'inhibition de la dermite à la candidine après intradermorèaction (IDR). Thèse, Universitè de Genève, 1984). UV-B rays are administered by a UV-B lamp.
Inflammation is measured quantitatively. The area of the inflamed skin is measured in cm^2. The thickness of the skin is monitored by Ultrasound at 20 MHz. Erythema is measured by colorimetric determination employing a Minolta CR 20. […]
All determinations are recorded on a scale from 0 to 4: • 0=no reduction • 1=slight reduction (10 to 20%) • 2=moderate reduction (21 to 40%) • 3=marked reduction (41 to 70%) • 4=very marked reduction (71 to 100%) • Compared to vehicle control.

c-Jun mRNA expression = test: Semi chronic inflammation of mouse ears, c-Jun mRNA (northern blot); format: in vivo, C57BL/6 mice; conditions: TPA 0.005% + test compound 0.05%
Description: […] mice of the C57BL/6 strain are used. Inflammation is induced on mouse ears with either AtRA, 9-cis RA or TPA by topical application. Inflammation is measured objectively by determination of the activity of myeloperoxidase (MPO) being directly correlated to the infiltration of polymorphonuclear white blood cells and by the determination of mRNA expression of c-jun, a protein implicated in the AP-1 transduction pathway according to known methods, see e.g. P. L. Stanley et al., Skin Pharmacol. 4, 262-271 (1991) (MPO assay), N. Basset-Sequin et al., J. Invest. Dermatol. 94, 418-422 (1990), F. J. Rauscher et al., Cell 52, 471-480 […], P. Sassone-Corn et al., Nature 326, 507-510 (1987), and M. Pfahl, Endocr. Rev. 14, 651-658, 1993, which are incorporated by reference regarding the experimental method.
The anti-inflammatory effect of topical RXR antagonists is tested by determination of myeloperoxidase activity in % of vehicle controls. The effect of the RXR antagonist compound 15 is also compared with the well known anti-inflammatory effect of the two corticosteroids, clobetasol dipropionate and betamethasone propionate. For induction of inflammation, AtRA and TPA are applied topically to the skin and the administration of the test compounds, the RXR antagonist compound 15 and the two corticosteroids are given in the following order, according to the schedule, described in: Skin Pharmacol 1991; 4 (4): 262-271, Stanley P L. et.al.: RA or TPA is administered on days 0, 2, 4, 7 and 9, compound 15 or corticosteroids are administered twice daily on day 7, day 8 and day 9 and once on day 10 in the morning. The mice are sacrificed on day 10 in the afternoon.
In the same experiment, the expression of c-Jun mRNA is determined by northern blot and expressed in percent of the vehicle controls.

normal skin of mice = test: Effect on normal, non-inflamed skin of mice; format: in vivo, C57BL/6 mice
Description: The effect of the RXR antagonist compound 15 on normal skin of mice is investigated. The ears of C57BL/6 mice are treated epicutaneously (topically) for 4 consecutive days with compound 15 in a concentration of 0.05% and 2.5% in acetone/ethanol (1:1, v/v). Comparison with vehicle control. Skin reactions, in particular inflammation, erythema, desquamation, and edema, are observed daily. Myeloperoxidase (MPO) activity is determined. The activity of MPO is considered the most sensitive criterium for the assessment of inflammation of the skin (see above, Examples 6 and 7).

[3] = Pharmacokinetics, single dose administration; format: in vivo; conditions: plasma; for concentration at 1 h: po, microsuspension in oil, read-out: Plasma level one hour after oral administration
Description: Single dose administration: Compound 15 is administered orally as a microsuspension in oil. When measured one hour after oral administration, plasma levels are 480 ng/ml with 20 mg/kg and 2755 ng/ml with 100 mg/kg. There is a dose proportional increase in plasma levels of compound 15 within this dose range.

## CC1=C(/C=C/C2=C(/C=C/C(C)=C/C(=O)O)CCCCC2)C(C)(C)CCC1 [Compound 1, (2E,4E)-3-methyl-5-[2-[(E)-2-(2,6,6-trimethyl-1-cyclohexen-1-yl)ethenyl]-1-cyclohepten-1-yl]-2,4-pentadienoic acid]
NMRI mice; all treated groups
  Lipid profile (triglycerides, HDL-, LDL-cholesterol): tendency to a decrease in triglycerides, an increase in HDL-cholesterol and a decrease in LDL-cholesterol
  Signs or symptoms of the hypervitaminosis A syndrome: no signs or symptoms of the hypervitaminosis A syndrome
NMRI mice; daily oral gavage, 2 weeks, up to 400 mg/kg/day
  Tolerability, oral: very well tolerated
NMRI mice; intraperitoneally, 200 mg/kg/day
  Tolerability, intraperitoneal: well tolerated
NMRI mice; intraperitoneally, 400 mg/kg/day
  Body weight, intraperitoneal: retarded body weight increase

## CCCCOc1c(\C(C)=C/C=C/C(C)=C/C(=O)O)cc(C(C)(C)C)cc1C(C)(C)C [Compound 15, (2E,4E,6Z)-7-[2-butoxy-3,5-bis(1,1-dimethylethyl)phenyl]-3-methyl-2,4,6-octatrienoic acid]
Normal mice
  Signs or symptoms of hypervitaminosis A: no signs or symptoms of hypervitaminosis A on skin, mucous membranes or bones with the exception of hair loss
Normal mice; doses up to 400 mg/kg
  Tolerability, intraperitoneal: well tolerated
[1]; 30 mg/kg
  AUC: 13200 ng·h/mL
  Cmax: 4440 ng/mL
[1]; 100 mg/kg
  AUC: 25700 ng·h/mL
  Cmax: 8920 ng/mL
[1]; oral gavage 30 to 400 mg/kg/day, 14 days
  Tmax: 0.5 to 2 h
[2]; 4 healthy volunteers, topical, candidin or UV-B induced
  Reduction of the inflammatory reaction compared to vehicle control: very marked
[2]; topical lotion 1%
  Anti-inflammatory effect compared with corticosteroids or macrolides: even superior to that of corticosteroids or macrolides
c-Jun mRNA expression
  c-Jun mRNA expression (% of vehicle treated mice): 88 % of vehicle treated mice
Normal skin of mice; epicutaneous 0.05% and 2.5%, 4 consecutive days
  Clinical signs or symptoms of skin inflammation on normal skin: does not induce clinical signs or symptoms of a skin inflammation
Normal skin of mice; normal skin, 0.05%
  MPO activity compared to the vehicle control (in words): no significant change
Normal skin of mice; normal skin, 2.5%
  MPO activity, % of that of the vehicle control: 57%
[3]; single dose 20 mg/kg
  concentration at 1 h: 480 ng/mL
[3]; single dose 100 mg/kg
  concentration at 1 h: 2760 ng/mL
[3]; at the mentioned low doses, intravenous versus oral PK data
  bioavailability: 40%
